Measurements from patent US4665095A, “Use of 2-[(3,5-dihalo-4-aminobenzyl)]imidazolines to stimulate alpha-1 adrenergic receptors and to treat nasal congestion” (Abbott Laboratories, priority 1985, dated 1987).
Structures can show the parent of a compound that is named as a salt.

Key:
nasal mucosa of rats = test: Effect on Nasal Irritation in Rats; type: in vivo, rat (CD strain)
Method: The product of Example 4 was dissolved in phosphate buffered normal saline and adjusted to a pH of approximately 7. The solution was prepared at the following concentrations: 0.05, 0.15, 0.5 and 1.5 percent. Groups of five male rats (CD strain) were administered each dose. The rats were approximately 5 weeks old at the start of treatment. Prior to dosing, ketaminehydrochloride was administered intraperitoneally to produce transient anesthesia to facilitate test compound administration. Rats in each group were given 0.04 mL/day of the appropriate solution for 14 days. The dosage was divided equally between both nostrils (i.e., 0.02 mL/nostril/day).

nasal mucosa = settings: background art; cited from earlier work
[1] = tested on: nasal resistance in anesthetized dogs; test: Effect on airway (nasal) resistance in anesthetized dogs following intranasal spray administration; type: in vivo, beagle dog; settings: aerosol, mg per dog
Method: (§1) a. Method Beagle dogs of either sex, weighing 9-12 kg were anesthetized with nembutal (30 mg/kg, intravenously) with supplemental doses administered throughout the experiment as required. The dogs were intubated with a cuffed endotracheal tube and were ventilated with room air by means of a Harvard respiration pump. Arterial blood pressure was recorded from a femoral artery using a Statham P23Gb pressure transducer. A tachygraphic recording of heart rate was obtained from the blood pressure signal.
(§2) A constant flow of air (2 liters/minute); provided by an anesthetic machine (CAECO) was administered into a nasal cavity through a 6 cm long plastic tube tapered to a diameter of 6 mm to fit into the right nostril. The air perfused the nasal cavity and exited through the mouth. The resistance to the air flow exerted by the large surface area of the nasal mucosa was measured as a nasal pressure in cm of water, using Model MP 45 Validyne transducer. […] Since the amount of drug administered in this way is extremely small and not directly measurable, the doses were calculated from the concentration of drug in the humidifier and volume of fluid used in each administration (in mg per dog). The nasal resistance, heart rate and blood pressure were monitored prior to and then 2 hours following the drug administration. […]

[2] = Blood pressure and heart rate in anesthetized dogs following intranasal spray administration; type: in vivo, beagle dog
Method: as §1, §2

[3] = up to 1.5%, 0.04 mL/day intranasal, 14 days

SMILES	toxicity or nasal injury (nasal mucosa of rats; 0.05% to 0.15% concentrations)	nasal mucosal injury (nasal mucosa of rats; 0.5% and 1.5% concentration)	systemic side effects and deaths (nasal mucosa of rats; 0.5% and 1.5%, repeated administration)	irritation of the nasal mucosa (nasal mucosa)	threshold dose producing decrease of nasal resistance [1] [mg]	systematic hemodynamic effects ([2]; at the effective nasal decongestant dose)	elevation of the blood pressure above the base level ([2]; highest tested dose, 1.65 mg)	nasal mucosal injury (nasal mucosa of rats; [3])	systemic toxic effects (nasal mucosa of rats; [3])
Cc1cc(C(C)(C)C)c(O)c(C)c1CC1=NCCN1 [oxymetazoline]	did not cause any toxicity or nasal injury	induced nasal mucosal injury	Systemic side effects and deaths occurred in most animals	often cause irritation of the nasal mucosa					
c1ccc2c(CC3=NCCN3)cccc2c1 [naphazoline]				often cause irritation of the nasal mucosa					
Nc1c(Cl)cc(CC2=NCCN2)cc1Cl [Example 4, 2-[(3,5-Dichloro-4-aminobenzyl)]imidazoline hydrochloride]					0.00165	devoid of any systematic hemodynamic effects	approximately 10%	no nasal mucosal injury	no nasal mucosal injury or any systemic toxic effects
